Measured values from patent US8993782B2, “Cis-alkoxyspirocyclic biphenyl-substituted tetramic acid derivatives” (Bayer CropScience AG, priority 2006, dated 2015).

How the values were obtained:
Assay type in all cases: in vivo
Aphis gossypii [1] = test: Aphis gossypii test, spray, ammonium salt and penetrant (Example 3); conditions: 20 ppm active compound
Experimental: Aphis gossypii Test Solvent: 7 parts by weight of dimethylformamide Emulsifier: 2 parts by weight of alkylaryl polyglycol ether To produce a suitable preparation of active compound, 1 part by weight of active compound is mixed with the stated amounts of solvent and emulsifier, and the concentrate is diluted with emulsifier-containing water to the desired concentration. For application with ammonium salts or phosphonium salts and penetrant (rapeseed oil methyl ester 500 EW) these are added in each case in a concentration of 1000 ppm (a.i.) to the spray liquor. Cotton plants (Gossypium hirsutum) which are heavily infested by the cotton aphid (Aphis gossypii) are treated with the active compound preparation of the desired concentration by spraying to runoff point. After the desired period of time, the kill in % is determined. 100% means that all aphids have been killed; 0% means that none of the aphids have been killed.

Myzus persicae = Myzus persicae test, spray, activity boost by ammonium salt and penetrant (Example 2); conditions: 0.8 ppm active compound
Experimental: Activity Boost Through Ammonium/Phosphonium Salts in Combination with Penetrants
(§1) Solvent: 7 parts by weight of dimethylformamide
(§2) Emulsifier: 2 parts by weight of alkylaryl polyglycol ether
To produce a suitable preparation of active compound, 1 part by weight of active compound is mixed with the stated amounts of solvent and emulsifier, and the concentrate is diluted with water to the desired concentration. For application with ammonium salts or phosphonium salts and penetrants (rapeseed oil methyl ester 500 EW) these are added in each case in a concentration of 1000 ppm to the spray liquor.
Bell pepper plants (Capsicum annuum) which are heavily infested by the green peach aphid (Myzus persicae) are treated with the active compound preparation of the desired concentration by spraying to runoff point. After the desired period of time, the kill in % is determined. 100% means that all animals have been killed; 0% means that none of the animals have been killed.

Aphis gossypii [2] = test: Aphis gossypii test, spray, with/without ammonium salt (Example 1); conditions: 20 ppm active compound, cotton plants sprayed to runoff
Experimental: as §1, §2
To produce a suitable preparation of active compound, 1 part by weight of active compound is mixed with the stated amounts of solvent and emulsifier, and the concentrate is diluted with emulsifier-containing water to the desired concentration. For application with ammonium salts or phosphonium salts these are added in a concentration of 1000 ppm to the spray liquor.
Cotton plants (Gossypium hirsutum) which are severely infested with cotton aphids (Aphis gossypii) are treated by spraying to runoff point with the preparation of the active substance at the desired concentration.
After the desired period of time, the kill in % is determined. 100% means that all aphids have been killed; 0% means that none of the aphids have been killed.

## CO[C@H]1CC[C@]2(CC1)NC(=O)C(c1cc(-c3ccc(F)cc3)ccc1C)=C2O [I-a-1]
Aphis gossypii [1]; +AS (1000 ppm)
  Kill rate/% after 6 days: 15%
Aphis gossypii [1]; +RME (1000 ppm)
  Kill rate/% after 6 days: 70%
Aphis gossypii [1]; +RME + AS (1000 ppm each)
  Kill rate/% after 6 days: 80%
Aphis gossypii [1]; cotton plants sprayed to runoff, no additive
  Kill rate/% after 6 days: 5%
Myzus persicae; +AS (1000 ppm)
  Kill rate/% after 6 days: 0%
Myzus persicae; +RME (1000 ppm)
  Kill rate/% after 6 days: 30%
Myzus persicae; +RME + AS (1000 ppm each)
  Kill rate/% after 6 days: 70%
Myzus persicae; bell pepper plants sprayed to runoff, no additive
  Kill rate/% after 6 days: 10%

## COC1CCC2(CC1)NC(=O)C(c1c(C)ccc(-c3ccc(F)cc3)c1C)=C2O (stereo not shown) [I-a-2]
Aphis gossypii [2]; +AS (1000 ppm)
  Kill rate/% after 6 days: 25%
Aphis gossypii [2]; no additive
  Kill rate/% after 6 days: 15%
